The numbers were not newly measured in paper PMC4054929 (Bioorganic & medicinal chemistry, 2014), which cites them from elsewhere.

What is called IC50 is the concentration that inhibits the measured activity by half.

SMILES strings stand for the structures.

This series deals with PDE10A. The note with it: unlabeled compounds; cited from earlier work.

In the case of `COc1cc2ccccc2nc1COc1ccc(-c2nn(C)cc2-c2ccncc2)cc1` [Compound 1], the concentration for half-maximal inhibition (IC50) is 0.4 ± 0.02 nM.
Regarding `COc1cc(COc2ccc(-c3nn(C)cc3-c3ccncc3)cc2)nc2ccccc12` [Compound 2], the IC50 was 0.28 ± 0.06 nM.
As to `COc1ccc2nc(COc3ccc(-c4nn(C)cc4-c4ccncc4)cc3)ccc2c1` [Compound 3], the IC50 was 1.82 ± 0.25 nM.
